Source: ChEMBL document CHEMBL1201862, “PubChem BioAssay data set” (2004)
Activity calls are given as the source filed them.

Experiments:
[1] = target: T1, Microphthalmia-associated transcription factor (Homo sapiens, UniProt O75030); assay: TRPM1 promoter luciferase signal decrease, dose response, MITF inhibitor project, cell-based, SK-MEL-5, cherry-picked, set 3 (AID 493073); assay type: functional
T1 sequence (O75030 whole entry): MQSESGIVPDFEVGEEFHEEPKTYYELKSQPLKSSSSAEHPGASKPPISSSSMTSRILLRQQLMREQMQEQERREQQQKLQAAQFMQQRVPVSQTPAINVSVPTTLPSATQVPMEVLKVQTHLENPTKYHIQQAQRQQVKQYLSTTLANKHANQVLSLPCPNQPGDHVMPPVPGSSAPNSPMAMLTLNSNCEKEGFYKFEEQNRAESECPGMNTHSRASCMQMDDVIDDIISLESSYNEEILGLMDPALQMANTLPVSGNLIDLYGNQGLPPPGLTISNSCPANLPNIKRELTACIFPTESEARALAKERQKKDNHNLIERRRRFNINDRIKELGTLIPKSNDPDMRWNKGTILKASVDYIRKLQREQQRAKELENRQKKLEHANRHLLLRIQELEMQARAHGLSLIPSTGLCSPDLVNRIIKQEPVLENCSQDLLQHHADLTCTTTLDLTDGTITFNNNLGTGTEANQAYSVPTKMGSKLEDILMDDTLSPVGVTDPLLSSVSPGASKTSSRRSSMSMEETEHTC

[2] = target: Cytochrome P450 3A4 (Homo sapiens, UniProt P08684); settings: Potency;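 further: confirmatory qHTS run detecting inhibitors and substrates of CYP3A4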
[3] = system: Vero; assay: cells; assay type: functional; settings: Chlorocebus sabaeus
[4] = target: Heat shock protein HSP 90-alpha (Homo sapiens, UniProt P07900); assay type: functional, organism-based
[5] = Shn3 3'UTR reporter inhibitors, dose response, cell-based, Clone20 osteoblasts, firefly luciferase, cherry-picked (AID 624132); assay type: functional;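 further: firefly luciferase luminescence from reporter carrying the Shn3 3'UTR in osteoblasts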
[6] = HepG2 cell cytotoxicity, dose response, cytotoxicity control for Shn3 inhibitor project, CellTiter-Glo, cherry-picked (AID 624134); assay type: functional, cell-based
[7] = control 3'UTR Renilla luciferase suppression, dose response, counter-screen for Shn3 inhibitor project, cell-based, Clone20-Shn3RL, cherry-picked (AID 624133); assay type: functional
[8] = inhibitors of clade B AD8 Env fusion, dose response, cell-based, cherry-pick (AID 652062); assay type: functional;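 further: luciferase signal from cell-cell fusion driven by HIV-1 clade B AD8 Env; potency is for inhibitors of fusion seen as a drop in luminescence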
[9] = target: Eukaryotic translation initiation factor 4E (Mus musculus, UniProt P63073); assay: eIF4E–eIF4G protein interaction inhibitors, dose response, biochemical, TR-FRET (AID 855); assay type: functional;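 further: potency for disrupting eIF4E binding to eIF4GI seen as loss of FRET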
[10] = target: Nonstructural protein 1 (Influenza A virus, UniProt Q194T2); assay type: functional, Influenza A virus (A/California/07/2009(H1N1))
[11] = target: Glyceraldehyde-3-phosphate dehydrogenase (Homo sapiens, UniProt P04406)
[12] = target: T2, Long-chain-fatty-acid--AMP ligase FadD28 (Mycobacterium tuberculosis, UniProt P9WQ59); assay: Fluorescence polarization aasay to screen for inhibitors that compete for the binding of FadD28 to a bisubstrate Measured in Biochemical System Using Plate Reader - 2147-01_Inhibitor_Dose_CherryPick_Activity.; assay type: functional, Mycobacterium tuberculosis H37Rv
T2 sequence (P9WQ59 whole entry): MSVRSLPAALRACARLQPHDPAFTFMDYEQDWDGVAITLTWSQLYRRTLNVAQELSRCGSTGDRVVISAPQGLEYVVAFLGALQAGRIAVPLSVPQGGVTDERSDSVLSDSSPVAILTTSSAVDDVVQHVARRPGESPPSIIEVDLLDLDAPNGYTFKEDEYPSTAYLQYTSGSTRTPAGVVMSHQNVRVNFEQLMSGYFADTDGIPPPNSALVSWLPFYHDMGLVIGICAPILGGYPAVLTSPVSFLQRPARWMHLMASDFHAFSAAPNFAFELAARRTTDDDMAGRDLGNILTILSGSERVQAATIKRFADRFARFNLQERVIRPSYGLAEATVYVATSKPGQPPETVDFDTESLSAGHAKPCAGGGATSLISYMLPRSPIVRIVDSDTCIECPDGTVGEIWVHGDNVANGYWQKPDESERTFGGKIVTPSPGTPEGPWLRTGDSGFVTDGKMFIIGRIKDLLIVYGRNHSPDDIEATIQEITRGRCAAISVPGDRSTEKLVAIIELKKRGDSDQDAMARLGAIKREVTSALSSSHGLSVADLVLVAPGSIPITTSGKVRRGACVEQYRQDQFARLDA

[13] = system: HEK293; assay: NOD1 signaling inhibitors, primary screen, cell-based, luminescence, uHTS (AID 1578); assay type: functional; settings: Homo sapiens
[14] = system: HEK293; assay: cells; assay type: functional, cell-based; settings: Homo sapiens
[15] = system: HEK293; assay: cells; assay type: functional, cell-based; settings: Homo sapiens; remark: listed apart in the source
[16] = system: HEK293; assay: NOD2 signaling inhibitors in MDP-stimulated cells, cell-based, uHTS, luminescence (AID 2001); assay type: functional; settings: Homo sapiens
[17] = growth suppression of PTEN-null colon cells, dose response, cell-based, HCT116 PTEN knockout (AID 1047); assay type: functional;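 further: HCT116 colon tumor cells with PTEN knocked out; cells exposed to compound for 60 hours before readout; potency for loss of cell viability measured by luminescence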
[18] = growth suppression of beta-catenin-knockout colon cells, dose response, cell-based, HCT116, human colon tumor (AID 1045); assay type: functional;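 further: HCT116 colon tumor cells with beta catenin knocked out; cells exposed to compound for 60 hours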
[19] = target: Luciferin 4-monooxygenase (Photinus pyralis, UniProt P08659); assay: firefly luciferase enzyme inhibitors, dose response, biochemical, luminescence (AID 1891)
[20] = Luminescence Cell-Based Dose Confirmation HTS to Identify Inhibitors of Platelet Dense Granule Release. [Related pubchem assays: 1663 (Primary HTS), 1678 (Summary of Project)]; assay type: functional
[21] = cells; assay type: functional, cell-based
[22] = cells; assay type: functional, cell-based; remark: listed apart in the source
[23] = system: INS1; assay: beta cell apoptosis inhibitors, cytokine rescue, dose response, luminescence, retest (AID 449756); assay type: functional, cell-based; settings: Rattus norvegicus;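 further: cell death triggered by IL-1 beta plus TNF-alpha plus IFN-gamma mixture; protective hits raise ATP signal compared with cytokine alone wells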
[24] = target: Genome polyprotein (dengue virus type 2, UniProt P29990); assay: Dengue-2 NS5 methyltransferase inhibitors, primary screen, biochemical, confirmation dose response (AID 588689); assay type: functional
[25] = target: T3, Cytochrome P450 1A2 (Homo sapiens, UniProt P05177);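 further: PubChem cytochrome P450 panel assay, CYP1A2 panel member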
T3 sequence (P05177 whole entry): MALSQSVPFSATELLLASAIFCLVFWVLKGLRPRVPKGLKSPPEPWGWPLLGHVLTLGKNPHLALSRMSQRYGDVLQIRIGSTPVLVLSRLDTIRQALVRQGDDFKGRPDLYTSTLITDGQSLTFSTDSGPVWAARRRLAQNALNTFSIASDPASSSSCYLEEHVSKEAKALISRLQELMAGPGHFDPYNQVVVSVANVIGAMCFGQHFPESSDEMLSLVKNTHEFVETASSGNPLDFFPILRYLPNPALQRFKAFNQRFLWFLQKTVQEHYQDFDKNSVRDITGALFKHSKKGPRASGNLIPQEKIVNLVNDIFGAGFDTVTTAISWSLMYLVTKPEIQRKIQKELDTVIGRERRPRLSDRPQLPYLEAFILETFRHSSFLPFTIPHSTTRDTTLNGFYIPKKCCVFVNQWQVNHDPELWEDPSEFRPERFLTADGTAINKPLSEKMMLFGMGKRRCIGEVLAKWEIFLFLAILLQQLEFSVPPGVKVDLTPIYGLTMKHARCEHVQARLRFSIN

[26] = target: Paired box protein Pax-8 (Homo sapiens, UniProt Q06710); assay: inhibitors of PAX8-driven TPO luciferase reporter, dose response, RMG-I cells, cherry-pick (AID 687027); assay type: functional, cell-based;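 further: luciferase reporter driven by Pax8 target thyroperoxidase promoter measured by SteadyGlo luminescence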
[27] = inhibitors of HIV Env-driven cell fusion, dose response, cherry-pick (AID 652057); assay type: functional, cell-based
[28] = THP-1 cell cytotoxicity, dose response, cytotoxicity control for non-replicating M. tuberculosis project (AID 489025); assay type: functional
[29] = Vero E6 cell cytotoxicity, dose response, cytotoxicity control for non-replicating M. tuberculosis project, secondary assay (AID 492998); assay type: functional, VeroE6; settings: Vero C1008
[30] = cells; assay type: functional
[31] = target: T4, Sentrin-specific protease 8 (Homo sapiens, UniProt Q96LD8); assay type: functional
T4 sequence (Q96LD8 whole entry): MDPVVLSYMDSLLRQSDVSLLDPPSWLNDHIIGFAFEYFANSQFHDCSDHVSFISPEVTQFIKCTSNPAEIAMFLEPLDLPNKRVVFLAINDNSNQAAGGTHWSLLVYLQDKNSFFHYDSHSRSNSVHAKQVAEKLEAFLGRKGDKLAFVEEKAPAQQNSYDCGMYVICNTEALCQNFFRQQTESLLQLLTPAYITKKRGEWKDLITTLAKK

[32] = target: T4, Sentrin-specific protease 8; assay type: functional; remark: listed apart in the source

CC(C)N1C/C(=C/c2cccnc2)C(=O)/C(=C/c2cccnc2)C1
AC50 [1]: 14.2 µM (active)

CC(=O)Nc1ccc(C2C(C)CCC3C(=O)N4C(CCC(C)[C@@H]4c4ccc(NC(C)=O)cc4)C(=O)N32)cc1 (some centres undefined)
AC50 [2]: 3.16 µM (inconclusive)

N#Cc1c(NCCN)nc(-c2ccccc2)c2c1CCCC2
CC50 [3]: 16.4 µM (active)

O=S(=O)(Nc1nc2ccccc2nc1N1CCN(c2ccccn2)CC1)c1ccc(Cl)cc1
AC50 [4]: 6.23 µM (active)

COc1cc2ccnc(Cc3cccc(OC)c3OC)c2cc1OC
AC50 [5]: 4.64 µM (active) | AC50 [6]: 40.7 µM (active) | AC50 [7]: 5.35 µM (active)

O=C1Nc2ccc(Br)cc2/C1=C/C1CC=CCC1 (centres undefined)
AC50 [4]: 8.03 µM (active)

CCC(NCc1ccc(F)cc1)=C1C(=O)N(C)C(=O)N(C)C1=O
AC50 [8]: 12.2 µM (active)

CCNCC(O)COCC(O)CNCC (centres undefined)
IC50 [9]: > 64 µM (inactive)

Cc1ccc(S(=O)(=O)CCC(=O)NCc2ccccc2Cl)cc1
IC50 [9]: > 64 µM (inactive)

O=C(Nc1nc(-c2ccccn2)cs1)C1COc2ccccc2O1 (centres undefined)
IC50 [10]: 10.7 µM (active) | AC50 [4]: 5.85 µM (active) | CC50 [3]: 10 µM (active) | AC50 [5]: 5.81 µM (active) | AC50 [6]: 47.6 µM (active) | AC50 [7]: 4.69 µM (active)

O=C(O)CS(=O)(=O)c1ccc(-c2ccc(S(=O)(=O)CC(=O)O)cc2)cc1
IC50 [11]: > 100 µM (not active)

CCCn1c(-c2ccc(F)cc2)nc2c(NC3CC4CCC(C3)N4C)nc(C)nc21 (centres undefined)
AC50 [2]: 15.8 µM (inconclusive)

COc1ccc(C(=O)Cn2nnc(-c3ccccc3F)n2)cc1
AC50 [12]: > 100 µM (inactive)

CCOc1cc(C=C(C(=O)OC)C(=O)OC)ccc1OCc1ccc([N+](=O)[O-])cc1
EC50 [13]: 11.9 µM (active) | IC50 [14]: 3.72 µM (active) | IC50 [15]: > 20 µM (inactive) | IC50 [16]: 5.8 µM (active) | EC50 [17]: 18 µM (active) | EC50 [18]: 16.9 µM (active)

COc1ccc(CNC(=O)c2cc3c(C)nc4ccccc4c3o2)c(OC)c1
EC50 [19]: > 112 µM (not active) | EC50 [20]: > 112 µM (not active) | AC50 [5]: 3.22 µM (active) | AC50 [6]: 3.5 µM (active) | AC50 [7]: 2.47 µM (active)

Cc1nc(N2CCOCC2)c2nc(-c3ccccc3)n(CCN3CCOCC3)c2n1
AC50 [2]: 10 µM (inconclusive)

CCCCNc1nc(C)nc2c1nc(-c1ccccc1)n2CCN(C)C
AC50 [2]: 15.8 µM (inconclusive)

COc1ccc(C(NC(C)=O)c2ccc3cccnc3c2O)c(OC)c1 (centres undefined)
EC50 [21]: 8.62 µM (active) | EC50 [22]: > 350 µM (not active) | AC50 [1]: 5.15 µM (active) | AC50 [23]: 1.09 µM (active) | AC50 [5]: 1.74 µM (active) | AC50 [6]: 2.68 µM (active) | AC50 [7]: 2.16 µM (active)

Oc1c(CN2CCOCC2)cc(CN2CCOCC2)c(O)c1O
IC50 [24]: 15.2 µM (active)

O=C(O)c1ccccc1C(=O)Nc1nccs1
IC50 [9]: > 64 µM (inactive) | AC50 [25]: 15.8 µM (inconclusive)

Cc1nn(-c2ccccc2)c(C)c1C(=O)OC(C)C(=O)NC1CCCCC1 (centres undefined)
AC50 [5]: 8.19 µM (active) | AC50 [6]: 41.8 µM (active) | AC50 [7]: 25.8 µM (active)

Nc1nc(N)c2cc(S(=O)(=O)c3cccc(C(F)(F)F)c3)ccc2n1
AC50 [5]: 5.22 µM (active) | AC50 [6]: 5.52 µM (active) | AC50 [7]: 16.9 µM (active)

C[C@@H]1CN([C@@H](C)CO)C(=O)c2cc(NC(=O)c3ccccc3)ccc2O[C@@H](C)CCCCO[C@H]1CN(C)Cc1ccc(C(F)(F)F)cc1
AC50 [26]: 10.1 µM (active)

C[C@@H]1CN([C@@H](C)CO)C(=O)Cc2cc(N(C)C)ccc2O[C@H]1CN(C)Cc1ccc(Oc2ccccc2)cc1
AC50 [26]: 11 µM (active)

COc1ccc(NC(=O)Nc2ccc3c(c2)C(=O)N([C@H](C)CO)C[C@H](C)[C@H](CN(C)S(=O)(=O)c2ccc(C)cc2)O3)cc1
AC50 [27]: 3.61 µM (active) | AC50 [8]: 11.2 µM (active)

COc1cc(C(=O)OC2CC[C@]3(C)C4CCC5[C@]6(O)CC(O)[C@]7(O)C(CN8CC(C)CCC8[C@]7(C)O)[C@]6(O)C[C@@]53O[C@]24O)cc(OC)c1OC (some centres undefined)
AC50 [2]: 20 µM (inconclusive)

Cc1ccc(-c2nn(-c3ccccc3)cc2/C=N/NC(=O)c2ccncc2)o1
CC50 [28]: 32.8 µM (active) | CC50 [29]: > 20 µM (active) | IC50 [30]: 0.22 µM (active)

O=[N+]([O-])c1ccc(/C=N/c2ccc(Cl)c([N+](=O)[O-])c2)s1
AC50 [4]: 2.99 µM (active) | IC50 [31]: 3.07 µM (active) | IC50 [32]: 2.35 µM (active)

O=C(/C=C/c1ccco1)c1ccccc1O
IC50 [9]: 50 µM (inactive)

O=C(/C=C/c1ccccc1)c1ccc(O)cc1O [2',4'-DIHYDROXYCHALCONE]
AC50 [2]: 1.58 µM (inconclusive)

O=c1cc(-c2ccccc2)oc2c(O)c(O)ccc12 [7,8-DIHYDROXYFLAVONE]
AC50 [2]: 39.8 µM (inconclusive)

O=C1C=C(O)C(=O)c2ccccc21 [LAWSONE]
AC50 [2]: 25.1 µM (inconclusive)
